ChEMBL document CHEMBL5303573, “Mapping human microbiome drug metabolism by gut bacteria and their genes” (Nature, 2019)

What was measured:
[1] = The drug is tested on Eggerthella lenta strain: ATCC25559 for biotransformation. The drug concentrations were measured before and after a 12-h incubation by liquid-chromatography-coupled mass spectrometry (LC–MS); conditions: 2 µM
[2] = The drug is tested on Alistipes indistinctus strain: DSM22520 for biotransformation. The drug concentrations were measured before and after a 12-h incubation by liquid-chromatography-coupled mass spectrometry (LC–MS); conditions: 2 µM
[3] = The drug is tested on Bacteroides fragilis strain: HMW610 for biotransformation. The drug concentrations were measured before and after a 12-h incubation by liquid-chromatography-coupled mass spectrometry (LC–MS); conditions: 2 µM
[4] = The drug is tested on Bacteroides ovatus strain: ATCC8483 for biotransformation. The drug concentrations were measured before and after a 12-h incubation by liquid-chromatography-coupled mass spectrometry (LC–MS); conditions: 2 µM
[5] = The drug is tested on Bacteroides pectinophilus strain: ATCC43243 for biotransformation. The drug concentrations were measured before and after a 12-h incubation by liquid-chromatography-coupled mass spectrometry (LC–MS); conditions: 2 µM
[6] = The drug is tested on Bacteroides uniformis strain: ATCC8492 for biotransformation. The drug concentrations were measured before and after a 12-h incubation by liquid-chromatography-coupled mass spectrometry (LC–MS); conditions: 2 µM
[7] = The drug is tested on Bacteroides vulgatus strain: ATCC8482 for biotransformation. The drug concentrations were measured before and after a 12-h incubation by liquid-chromatography-coupled mass spectrometry (LC–MS); conditions: phocaeicola vulgatus, 2 µM
[8] = The drug is tested on Odoribacter splanchnicus strain: fecal isolate for biotransformation. The drug concentrations were measured before and after a 12-h incubation by liquid-chromatography-coupled mass spectrometry (LC–MS); conditions: 2 µM
[9] = The drug is tested on Parabacteroides merdae strain: ATCC43184 for biotransformation. The drug concentrations were measured before and after a 12-h incubation by liquid-chromatography-coupled mass spectrometry (LC–MS); conditions: 2 µM
[10] = The drug is tested on Blautia luti strain: DSM14534 for biotransformation. The drug concentrations were measured before and after a 12-h incubation by liquid-chromatography-coupled mass spectrometry (LC–MS); type: ADME; set-up: dose 2 uM, timepoint 0 vs 12 hours; conditions: 2 µM
[11] = The drug is tested on Clostridium scindens strain: ATCC35704 for biotransformation. The drug concentrations were measured before and after a 12-h incubation by liquid-chromatography-coupled mass spectrometry (LC–MS); conditions: 2 µM
[12] = The drug is tested on Clostridium sporogenes strain: ATCC15579 for biotransformation. The drug concentrations were measured before and after a 12-h incubation by liquid-chromatography-coupled mass spectrometry (LC–MS); conditions: 2 µM
[13] = The drug is tested on Clostridium symbiosum strain: ATCC14940 for biotransformation. The drug concentrations were measured before and after a 12-h incubation by liquid-chromatography-coupled mass spectrometry (LC–MS); conditions: 2 µM
[14] = The drug is tested on Subdoligranulum variabile strain: DSM15176 for biotransformation. The drug concentrations were measured before and after a 12-h incubation by liquid-chromatography-coupled mass spectrometry (LC–MS); conditions: 2 µM
[15] = The drug is tested on Edwardsiella tarda strain: ATCC23685 for biotransformation. The drug concentrations were measured before and after a 12-h incubation by liquid-chromatography-coupled mass spectrometry (LC–MS); conditions: 2 µM
[16] = bacteroides fragilis, 12 h, 2 µM
Description: The drug is tested on Bacteroides fragilis strain: NCTC 9343 for biotransformation. The drug concentrations were measured before and after a 12-h incubation by liquid-chromatography-coupled mass spectrometry (LC–MS)

[17] = bacteroides thetaiotaomicron, 12 h, 2 µM
Description: The drug is tested on Bacteroides thetaiotaomicron strain: 3731 for biotransformation. The drug concentrations were measured before and after a 12-h incubation by liquid-chromatography-coupled mass spectrometry (LC–MS)

[18] = anaerostipes sp., 12 h, 2 µM
Description: The drug is tested on Anaerostipes sp. strain: fecal isolate for biotransformation. The drug concentrations were measured before and after a 12-h incubation by liquid-chromatography-coupled mass spectrometry (LC–MS)

[19] = The drug is tested on Anaerococcus hydrogenalis strain: DSM7454 for biotransformation. The drug concentrations were measured before and after a 12-h incubation by liquid-chromatography-coupled mass spectrometry (LC–MS); conditions: 2 µM
[20] = The drug is tested on Coprococcus comes strain: ATCC27758 for biotransformation. The drug concentrations were measured before and after a 12-h incubation by liquid-chromatography-coupled mass spectrometry (LC–MS); type: ADME; set-up: dose 2 uM, timepoint 0 vs 12 hours; conditions: 2 µM

CSc1ccc2c(c1)C(N1CCN(C)CC1)Cc1ccccc1S2.O=C(O)/C=C\C(=O)O (stereo not drawn)
Bacterial Biotransformation [1]: Compound NOT metabolized | Bacterial Biotransformation [2]: Compound NOT metabolized | Bacterial Biotransformation [3]: Compound NOT metabolized | Bacterial Biotransformation [4]: Compound NOT metabolized | Bacterial Biotransformation [5]: Compound NOT metabolized | Bacterial Biotransformation [6]: Compound metabolized | Bacterial Biotransformation [7]: Compound NOT metabolized | Bacterial Biotransformation [8]: Compound NOT metabolized | Bacterial Biotransformation [9]: Compound NOT metabolized | Bacterial Biotransformation [10]: Compound NOT metabolized | Bacterial Biotransformation [11]: Compound metabolized | Bacterial Biotransformation [12]: Compound metabolized | Bacterial Biotransformation [13]: Compound NOT metabolized | Bacterial Biotransformation [14]: Compound NOT metabolized | Bacterial Biotransformation [15]: Compound NOT metabolized | Bacterial Biotransformation [16]: Compound NOT metabolized | Bacterial Biotransformation [17]: Compound NOT metabolized | Bacterial Biotransformation [18]: Compound metabolized

CC(C)C[C@H]1C(=O)N2CCC[C@H]2[C@]2(O)O[C@](NC(=O)[C@@H]3C=C4c5cccc6[nH]c(Br)c(c56)C[C@H]4N(C)C3)(C(C)C)C(=O)N12.CS(=O)(=O)O [BROMOCRIPTINE MESYLATE]
Bacterial Biotransformation [1]: Compound metabolized | Bacterial Biotransformation [2]: Compound metabolized | Bacterial Biotransformation [3]: Compound metabolized | Bacterial Biotransformation [4]: Compound metabolized | Bacterial Biotransformation [5]: Compound metabolized | Bacterial Biotransformation [6]: Compound metabolized | Bacterial Biotransformation [7]: Compound metabolized | Bacterial Biotransformation [8]: Compound metabolized | Bacterial Biotransformation [9]: Compound metabolized | Bacterial Biotransformation [19]: Compound metabolized | Bacterial Biotransformation [10]: Compound metabolized | Bacterial Biotransformation [11]: Compound metabolized | Bacterial Biotransformation [12]: Compound metabolized | Bacterial Biotransformation [13]: Compound metabolized | Bacterial Biotransformation [14]: Compound metabolized | Bacterial Biotransformation [15]: Compound metabolized | Bacterial Biotransformation [16]: Compound metabolized | Bacterial Biotransformation [17]: Compound metabolized | Bacterial Biotransformation [18]: Compound metabolized

CC(NC(C)(C)C)C(=O)c1cccc(Cl)c1 (stereo not drawn) [BUPROPION]
Bacterial Biotransformation [1]: Compound NOT metabolized | Bacterial Biotransformation [2]: Compound NOT metabolized | Bacterial Biotransformation [3]: Compound NOT metabolized | Bacterial Biotransformation [4]: Compound metabolized | Bacterial Biotransformation [6]: Compound NOT metabolized | Bacterial Biotransformation [7]: Compound NOT metabolized | Bacterial Biotransformation [8]: Compound metabolized | Bacterial Biotransformation [9]: Compound metabolized | Bacterial Biotransformation [19]: Compound NOT metabolized | Bacterial Biotransformation [10]: Compound NOT metabolized | Bacterial Biotransformation [11]: Compound NOT metabolized | Bacterial Biotransformation [12]: Compound NOT metabolized | Bacterial Biotransformation [20]: Compound NOT metabolized | Bacterial Biotransformation [14]: Compound NOT metabolized | Bacterial Biotransformation [15]: Compound NOT metabolized | Bacterial Biotransformation [16]: Compound NOT metabolized | Bacterial Biotransformation [17]: Compound NOT metabolized | Bacterial Biotransformation [18]: Compound NOT metabolized

CNCCC(Oc1ccc(C(F)(F)F)cc1)c1ccccc1 (stereo not drawn) [FLUOXETINE]
Bacterial Biotransformation [1]: Compound NOT metabolized | Bacterial Biotransformation [2]: Compound metabolized | Bacterial Biotransformation [3]: Compound metabolized | Bacterial Biotransformation [4]: Compound metabolized | Bacterial Biotransformation [5]: Compound metabolized | Bacterial Biotransformation [6]: Compound metabolized | Bacterial Biotransformation [7]: Compound metabolized | Bacterial Biotransformation [8]: Compound metabolized | Bacterial Biotransformation [9]: Compound metabolized | Bacterial Biotransformation [19]: Compound NOT metabolized | Bacterial Biotransformation [10]: Compound NOT metabolized | Bacterial Biotransformation [11]: Compound NOT metabolized | Bacterial Biotransformation [12]: Compound metabolized | Bacterial Biotransformation [14]: Compound metabolized | Bacterial Biotransformation [15]: Compound NOT metabolized | Bacterial Biotransformation [16]: Compound metabolized | Bacterial Biotransformation [17]: Compound metabolized | Bacterial Biotransformation [18]: Compound metabolized
